From US20260200849A1, “CATIONIC LIPIDS AND PREPARATION METHOD THEREOF” (RiboX Therapeutics HK Limited, priority 2024, published 2026)
Several values for one entry are separate records, joined by “and”; a condition that tells them apart may be missing. Identical values can stand only once.

Key:
[1] = LNP size and polydispersity index (PDI) by dynamic light scattering (Zetasizer); assay type: physicochemical; settings: for Size (nm): Formulation No. 010 (Ionizable lipid:DSPC:cholesterol:DSPE-PEG2000 = 38:30:30:2, N/P 6), RNA No. 331
Protocol: (§1) The LNP size and polydispersity index (PDI), determined by dynamic light scattering (DLS), and zeta potential were measured by a Zetasizer machine (Malvern). RNA concentration and encapsulation efficacy (EE %) were analyzed by the Quant-IT Ribogreen kit by calculating the percentage encapsulation at 100%—(RNA-LNPs/RNA-LNPs with Triton X-100).

C57BL/6J mice = assay: In vivo expression by ID, whole-body/injection site skin/lymph node luminescence; settings: intradermal 0.15 mg/kg, 72 h post injection, female C57BL/6J mice N=3, Formulation 001, RNA 331
Protocol: 7-8 week old, female C57BL/6J mice (N=3) were injected with 0.15 mg*kg−1 of RNA-LNPs encoding for firefly-luciferase by intradermal injection. At 72-hours post injection, animals were intraperitoneally injected with 15 mg/mi of Luciferin substrate and whole-body/injection site skin/lymph node luminescence were determined by a bioluminescent in vivo imaging system (IVIS).

Hep G2 cells [2] = assay: In vitro toxicity: Hep G2 cell viability by CellTiter-Glo; assay type: cell-based; settings: 72 hours post transfection, cell only = 100%
Protocol: 2E5 Hep G2 cells were transfected with 1 μg/mL RNA-LNPs. At 72 hours post transfection, cell viability (2-well repeat) was determined with the CellTiter-Glo® reagent kit, according to the kit protocol, measured by a luminometer. Cell only as control (100%).
The cell viability was calculated according to the following formula: […]

Hep G2 cells [3] = assay: In vitro expression: luciferase activity in Hep G2 cells transfected with RNA-LNPs; assay type: cell-based; settings: 100 ng/mL RNA-LNPs, 72 hours post transfection
Protocol: 2E5 Hep G2 cells were transfected with 100 ng/mL of RNA-LNPs encoding for firefly-luciferase. At 72 hours post transfection, the cells were washed and lysed. The luciferase expression (2-well repeat) was determined in the cell lysates with the luciferase assay reagent kit (Promega), according to the kit protocol, luciferase activity was measured by a luminometer.

injection site skin = assay: In vivo tolerability after intradermal injection: H&E staining of injection site skin; design: species or system C57BL/6J mice; key to Infiltration, mononuclear cells, dermis/subcutaneous, focal, Grade / Edema, subcutaneous, focal, Grade / Erosion, focal, Grade / Skin, Grade: 1==minimal; 2=mild; 3=moderate; 4=marked; 5=severe; N=Normal; NA=Not applicable; —=No data; settings: intradermal 0.15 mg/kg, 72 h, Formulation 001, RNA 331; for Edema, subcutaneous, focal, Grade / Erosion, focal, Grade / Infiltration, mononuclear cells, dermis/subcutaneous, focal, Grade: per animal; for Total score: sum of lesion grades of the group (N=3)
Protocol: 7-8 week old, female C57BL/6J mice (N=3) were injected with 0.15 mg*kg−1 of RNA-LNIPs encoding for firefly-luciferase by intradermal injection. At 72-hours post injection, injection site skin from each animal was collected in 10% formalin, for H&E staining. PBS group (N=2) as control. (Note: 1==minimal, 2=mild, 3=moderate, 4=marked, 5=severe; N=Normal; NA=Not applicable; —=No data)

hEPO = assay: In vivo expression by IM: serum hEPO concentration by ELISA; settings: IM 0.075 mg/kg, male C57BL/6J mice N=3, Formulation 001, RNA 019
Protocol: Circular RNA payloads were suspended in 25 mM Acetate Buffer (pH 4.5). To form LNPs, three volumes of human erythropoietin (hEPO) encoding cirRNA (SEQ ID NO:2), were mixed with one volume of lipids in ethanol solution by microfluidic mixing with the INano™ L+ (Micro& Nano) at a flow rate of 12 ml/min. The molar ratio of ionizable lipid to ribonucleotide was 6. After encapsulation, the particles were dialyzed twice against PBS. The LNP formulation was concentrated to targeted RNA concentration by Amicon® Ultra Centrifugal Filter (100 kDa MWCO) and filtered by a 0.65/0.22 um sterile filter.
6-8 week old, male C57BL/6J mice (N=3) were injected with 0.075 mg*kg−1 of RNA-LNPs encoding for hEPO by intramuscular injection. At 2-/6-/24-/48-/72 h-hours post injection, about 80 μL blood will be harvested and immediately added to the procoagulant containing tube. Stand for 30 min at room temperature and then centrifuged at 2500 g×10 min to obtain serum. About 30 μL serum samples will be aliquoted for hEPO concentration detection by ELISA kit (STEMCELL Technologies).

[4] = RNA encapsulation efficacy (EE %) by Quant-IT Ribogreen kit; assay type: physicochemical; settings: LNP
Protocol: as §1

Balb/c mice = assay: In vivo expression by IV, 0.05 mg/kg luciferase RNA-LNPs, IVIS luminescence; settings: Formulation No. 010, RNA No. 331, female Balb/c mice, 0.05 mg*kg−1 intravenous; for Whole body at 24 h (p/s) (Mean): 24 hours post injection; for Whole body at 72 h (p/s) (Mean): 72 hours post injection
Method in brief: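 IVIS bioluminescence was read after IP luciferin (15 mg/ml): whole-body at 24 and 72 h, or whole-body/liver/spleen at 24 h. Dosing was a single IV injection of 0.05 mg*kg−1 RNA-LNPs encoding firefly luciferase into 7-8 week old female Balb/c mice, N=3.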

[5] = Formulation No. 001, RNA No. 019 (hEPO)
[6] = Formulation No. 001, RNA No. 331
[7] = Formulation No. 010, RNA No. 331
[8] = 1 μg/mL RNA-LNPs, Formulation 001, RNA 331
[9] = Formulation No. 010, RNA No. 331, 1 μg/mL RNA-LNPs
[10] = Formulation No. 010, RNA No. 331 (firefly-luciferase)

SMILES: CCCCC/C=C\C/C=C\CCCCCCCC(=O)NC(COC(=O)NCCN1CCCCCC1)C(=O)OCCCCCCCC(=O)OC(CCCCCCCC)CCCCCCCC (centres unmarked) [Lipid 550]
- PDI [1, 5]: 0.04
- Size [1, 5]: 66.58 nm
- PDI [1, 6]: 0.15
- Size [1, 6]: 72.66 nm
- Size (nm) [1]: 67.81 nm
- PDI [1, 7]: 0.13
- Injection site Skin (p/s) (C57BL/6J mice): 1.33E+07 p/s
- Lymph node (p/s) (C57BL/6J mice): 2.06E+06 p/s
- Whole body (p/s) (C57BL/6J mice): 3.09E+07 p/s
- In vitro cell viability (%) (Mean) (Hep G2 cells [2]; [8]): 67.09%
- In vitro cell viability (%) (Mean) (Hep G2 cells [2]; [9]): 87.47%
- In vitro Expression (Mean) (Hep G2 cells [3]; Formulation 001, RNA 331): 1.89E+05
- In vitro Expression (Mean) (Hep G2 cells [3]; [10]): 5.74E+05
- Edema, subcutaneous, focal, Grade (injection site skin): 1
- Erosion, focal, Grade (injection site skin): 1 and — (2×)
- Infiltration, mononuclear cells, dermis/subcutaneous, focal, Grade (injection site skin): 1
- Total score (injection site skin): 7
- hEPO conc. (ng/mL) at 2 h (hEPO): 1.56 ng/mL
- hEPO conc. (ng/mL) at 6 h (hEPO): 6.19 ng/mL
- hEPO conc. (ng/mL) at 24 h (hEPO): 9.69 ng/mL
- hEPO conc. (ng/mL) at 48 h (hEPO): 2.38 ng/mL
- hEPO conc. (ng/mL) at 72 h (hEPO): 0.67 ng/mL
- EE (%) [4, 5]: 92.20%
- EE (%) [4, 6]: 94.50%
- EE (%) [4, 7]: 94.88%
- Whole body at 24 h (p/s) (Mean) (Balb/c mice): 2.36E+08 p/s
- Whole body at 72 h (p/s) (Mean) (Balb/c mice): 4.96E+07 p/s

SMILES: CCCCC/C=C\C/C=C\CCCCCCCC(=O)N[C@@H](COC(=O)NCCN1CCCCC1)C(=O)OCCCCCCCC(=O)OC(CCCCCCCC)CCCCCCCC [Lipid 601]
- PDI [1, 5]: 0.04
- Size [1, 5]: 73.40 nm
- PDI [1, 6]: 0.09
- Size [1, 6]: 80.16 nm
- Size (nm) [1]: 62.33 nm
- PDI [1, 7]: 0.08
- Injection site Skin (p/s) (C57BL/6J mice): 9.69E+06 p/s
- Lymph node (p/s) (C57BL/6J mice): 1.89E+06 p/s
- Whole body (p/s) (C57BL/6J mice): 5.92E+07 p/s
- In vitro cell viability (%) (Mean) (Hep G2 cells [2]; [8]): 81.18%
- In vitro cell viability (%) (Mean) (Hep G2 cells [2]; [9]): 98.14%
- In vitro Expression (Mean) (Hep G2 cells [3]; Formulation 001, RNA 331): 9.94E+05
- In vitro Expression (Mean) (Hep G2 cells [3]; [10]): 6.24E+05
- Edema, subcutaneous, focal, Grade (injection site skin): 1
- Erosion, focal, Grade (injection site skin): —
- Infiltration, mononuclear cells, dermis/subcutaneous, focal, Grade (injection site skin): 1
- Total score (injection site skin): 6
- hEPO conc. (ng/mL) at 2 h (hEPO): 1.12 ng/mL
- hEPO conc. (ng/mL) at 6 h (hEPO): 7.35 ng/mL
- hEPO conc. (ng/mL) at 24 h (hEPO): 12.74 ng/mL
- hEPO conc. (ng/mL) at 48 h (hEPO): 3.29 ng/mL
- hEPO conc. (ng/mL) at 72 h (hEPO): 1.06 ng/mL
- EE (%) [4, 5]: 90.47%
- EE (%) [4, 6]: 95.30%
- EE (%) [4, 7]: 95.98%
- Whole body at 24 h (p/s) (Mean) (Balb/c mice): 3.82E+08 p/s
- Whole body at 72 h (p/s) (Mean) (Balb/c mice): 8.02E+07 p/s

SMILES: CCCCC/C=C\C/C=C\CCCCCCCC(=O)NC(COC(=O)NCCN1CCCCCC1)C(=O)OCCCCCC(=O)OCC(CCCCCCCC)CCCCCCCCCC (centres unmarked) [Lipid 729]
- PDI [1, 6]: 0.08
- Size [1, 6]: 71.29 nm
- Size (nm) [1]: 57.90 nm
- PDI [1, 7]: 0.10
- Injection site Skin (p/s) (C57BL/6J mice): 1.33E+07 p/s
- Lymph node (p/s) (C57BL/6J mice): 1.42E+06 p/s
- Whole body (p/s) (C57BL/6J mice): 6.76E+07 p/s
- In vitro cell viability (%) (Mean) (Hep G2 cells [2]; [8]): 65.07%
- In vitro cell viability (%) (Mean) (Hep G2 cells [2]; [9]): 80.55%
- In vitro Expression (Mean) (Hep G2 cells [3]; Formulation 001, RNA 331): 1.64E+05
- In vitro Expression (Mean) (Hep G2 cells [3]; [10]): 3.44E+05
- Edema, subcutaneous, focal, Grade (injection site skin): 1 (2×) and —
- Erosion, focal, Grade (injection site skin): —
- Infiltration, mononuclear cells, dermis/subcutaneous, focal, Grade (injection site skin): 1
- Total score (injection site skin): 5
- EE (%) [4, 6]: 95.62%
- EE (%) [4, 7]: 95.94%
- Whole body at 24 h (p/s) (Mean) (Balb/c mice): 1.86E+08 p/s
- Whole body at 72 h (p/s) (Mean) (Balb/c mice): 4.99E+07 p/s

SMILES: CCCCC/C=C\C/C=C\CCCCCCCC(=O)N[C@H](COC(=O)NCCN1CCCCCC1)C(=O)OCCCCCC(=O)OC(CCCCCCCC)CCCCCCCC [Lipid 730]
- PDI [1, 6]: 0.05
- Size [1, 6]: 76.53 nm
- Size (nm) [1]: 59.50 nm
- PDI [1, 7]: 0.09
- Injection site Skin (p/s) (C57BL/6J mice): 1.63E+07 p/s
- Lymph node (p/s) (C57BL/6J mice): 3.33E+06 p/s
- Whole body (p/s) (C57BL/6J mice): 2.81E+07 p/s
- In vitro cell viability (%) (Mean) (Hep G2 cells [2]; [8]): 75.29%
- In vitro cell viability (%) (Mean) (Hep G2 cells [2]; [9]): 98.64%
- In vitro Expression (Mean) (Hep G2 cells [3]; Formulation 001, RNA 331): 5.98E+05
- In vitro Expression (Mean) (Hep G2 cells [3]; [10]): 7.72E+05
- Edema, subcutaneous, focal, Grade (injection site skin): 1
- Erosion, focal, Grade (injection site skin): —
- Infiltration, mononuclear cells, dermis/subcutaneous, focal, Grade (injection site skin): 1
- Total score (injection site skin): 6
- EE (%) [4, 6]: 97.08%
- EE (%) [4, 7]: 96.20%
- Whole body at 24 h (p/s) (Mean) (Balb/c mice): 2.24E+08 p/s
- Whole body at 72 h (p/s) (Mean) (Balb/c mice): 8.49E+07 p/s
